This note sets out measurements from ChEMBL document CHEMBL1201862, “PubChem BioAssay data set” (2004).

The structures appear in SMILES notation.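 Five concentrations, 48 hours, 96-well plates. GI50: concentration for 50% inhibition of growth.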 The source made the active and inactive calls. Cut-off read from the data, not from the text of the source: active = GI50 up to about 1.1 µM and inactive = higher.

Some test systems named below: SF-268; A549; SW-620; IGROV-1; U-251; NCI-H460; NCI-H226; HCT-15; HOP-92; SN12C; LOX IMVI; RPMI-8226; UO-31; SF-295; SK-MEL-5.
What all share (assay): NCI-60 cell line screen, 48 h

As to `Cc1ccc(/N=C2\N=C(N3CC(C)OC(C)C3)c3ccccc32)cc1` (centres undefined), the GI50 in the experiment on SF-268 was 25.9 µM (inactive); in the experiment on A549 it was 39.9 µM (inactive); with SW-620 it was 33.9 µM (inactive); in the experiment with IGROV-1, 27.5 µM (inactive); in the experiment on U-251, 39.4 µM (inactive); with NCI-H460, 27.2 µM (inactive). For the same compound, the GI50 in the experiment with NCI-H226 is 29 µM (inactive); in the experiment with HCT-15 it was 25.4 µM; in the experiment on HOP-92 it was 1.41 µM (inactive); in the experiment with SN12C it was 34.5 µM (inactive); in the experiment with LOX IMVI it was 28.2 µM (inactive); with RPMI-8226, 27.2 µM (inactive). Besides, the figures for the GI50 in the experiment on UO-31, in the experiment with SF-295 and with SK-MEL-5 were 21.3 µM (inactive), 29.9 µM (inactive) and 23.6 µM (inactive), respectively.

With `CCOC(=O)C(CCC(N)=O)(CCC(=O)OC)C(=O)OCC`, the GI50 in the experiment with SF-268, in the experiment on A549, in the experiment on SW-620, in the experiment on IGROV-1, with U-251 and with NCI-H460 was > 100 µM (inactive) throughout. In addition, the GI50 in the experiment with NCI-H226, with HOP-92, in the experiment with SN12C, with LOX IMVI, in the experiment with RPMI-8226 and in the experiment on UO-31 was > 100 µM (inactive) each time. The GI50 in the experiment with SF-295 is > 100 µM (inactive).

Take `Cc1ccc(C)c(NC(=O)CC/C(=N\NC(=O)c2c(O)ccc3ccccc23)C(C)C(=O)c2ccc(O)cc2)c1` (centres undefined): the GI50 in the experiment with SF-268 was 17.9 µM (inactive); with A549, 65 µM (inactive); in the experiment on SW-620, 41.3 µM (inactive); in the experiment with IGROV-1 it was 52 µM (inactive); in the experiment on U-251, 31.8 µM (inactive); in the experiment with NCI-H460, 21.7 µM (inactive). In addition, the GI50 was 37.1 µM (inactive) in the experiment on NCI-H226; 26.5 µM with HCT-15; 46.3 µM (inactive) in the experiment with HOP-92; 38.6 µM (inactive) in the experiment on SN12C; 18.7 µM (inactive) with LOX IMVI; 94.4 µM (inactive) in the experiment on RPMI-8226. Moreover, the figures for the GI50 in the experiment with UO-31, with SF-295 and in the experiment on SK-MEL-5 were 17.9 µM (inactive), 37.2 µM (inactive) and 41.3 µM (inactive), respectively.

As to `COc1ccc(C(Cl)=C(c2ccc(OCCN(C)C)cc2)c2ccc(OCCN(C)C)cc2)cc1`, the GI50 was 1.84 µM (inactive) in the experiment on SF-268; 1.83 µM (inactive) in the experiment on A549; 1.35 µM (inactive) with SW-620; 3.03 µM (inactive) in the experiment with IGROV-1; 1.58 µM (inactive) in the experiment on U-251; 1.82 µM (inactive) in the experiment on NCI-H460. The GI50 with NCI-H226 was 1.61 µM (inactive); in the experiment with HCT-15 it was 1.59 µM; in the experiment with HOP-92 it was 2.16 µM (inactive); in the experiment on SN12C, 2.65 µM (inactive); with RPMI-8226, 1.62 µM (inactive); in the experiment on UO-31, 1.58 µM (inactive). Moreover, the GI50 was 1.74 µM (inactive) in the experiment with SF-295 and 1.73 µM (inactive) in the experiment on SK-MEL-5.

As to `Brc1cc(C2OCCCO2)ccc1OCc1ccccc1`, the GI50 with SF-268 is 76.4 µM (inactive); with A549, 64.6 µM (inactive); in the experiment with SW-620 it was 30.1 µM (inactive); with IGROV-1, > 100 µM (inactive); in the experiment on NCI-H460, 50.9 µM (inactive); in the experiment with NCI-H226 it was 73.1 µM (inactive). The GI50 is 48 µM in the experiment with HCT-15; 33.6 µM (inactive) in the experiment on HOP-92; > 100 µM (inactive) in the experiment on SN12C; 25.8 µM (inactive) with LOX IMVI; 25.9 µM (inactive) with RPMI-8226; 52.4 µM (inactive) in the experiment on UO-31. Moreover, the GI50 is 52.8 µM (inactive) in the experiment with SF-295 and 27.2 µM (inactive) in the experiment with SK-MEL-5.

Take `N#C/C(=C\c1cc(OCc2ccccc2)c(OCc2ccccc2)cn1)C(N)=O`: the GI50 with SF-268, with A549, in the experiment on SW-620, in the experiment with IGROV-1, in the experiment with U-251 and with NCI-H460 was > 100 µM (inactive) each time. Moreover, the GI50 in the experiment with NCI-H226 is > 100 µM (inactive); in the experiment with HCT-15, more than 100 µM; in the experiment on HOP-92, 85.7 µM (inactive); in the experiment with SN12C, > 100 µM (inactive); in the experiment on LOX IMVI, 30.5 µM (inactive); in the experiment with RPMI-8226, 36.6 µM (inactive). Besides, the GI50 in the experiment on UO-31, in the experiment with SF-295 and in the experiment with SK-MEL-5 was > 100 µM (inactive) in each case.

On to `CN(C)c1ccc(/C=C(/C(=O)O)c2csc(-c3nc(/C(=C\c4ccc(N(C)C)cc4)C(=O)O)cs3)n2)cc1`, for which the GI50 in the experiment with SF-268, in the experiment on A549, in the experiment with SW-620, with IGROV-1, with U-251 and with NCI-H460 was > 100 µM (inactive) in each case. In addition, the GI50 in the experiment with NCI-H226 was > 100 µM (inactive); with HCT-15, 42.1 µM; with HOP-92, > 100 µM (inactive); in the experiment on SN12C it was > 100 µM (inactive); in the experiment with LOX IMVI it was 73.8 µM (inactive); in the experiment with RPMI-8226, 46.1 µM (inactive). Moreover, the GI50 is 60.3 µM (inactive) in the experiment with UO-31, > 100 µM (inactive) with SF-295 and 86.5 µM (inactive) in the experiment on SK-MEL-5.

Consider `COc1cc(C[P+](c2ccccc2)(c2ccccc2)c2ccccc2)cc(OC)c1OC`, for which the GI50 with SF-268, in the experiment on A549, in the experiment on SW-620, with IGROV-1, in the experiment on U-251 and in the experiment with NCI-H460 was > 100 µM (inactive) throughout. Moreover, the GI50 was > 100 µM (inactive) in the experiment on NCI-H226; more than 100 µM with HCT-15; > 100 µM (inactive) with HOP-92; > 100 µM (inactive) with SN12C; > 100 µM (inactive) with LOX IMVI; > 100 µM (inactive) in the experiment on RPMI-8226. For the same compound, the GI50 with UO-31, in the experiment with SF-295 and in the experiment with SK-MEL-5 was > 100 µM (inactive) throughout.

As to `COc1cccc(C(=O)N2CCc3ccccc32)c1OC`, the GI50 in the experiment with A549 was > 100 µM (inactive); in the experiment on SW-620, 41.9 µM (inactive); with IGROV-1 it was > 100 µM (inactive); with U-251, 52.7 µM (inactive); in the experiment with NCI-H460, 81.8 µM (inactive); in the experiment with NCI-H226 it was 90.6 µM (inactive). In addition, the GI50 in the experiment on HCT-15 is 21 µM; in the experiment with HOP-92, 53.5 µM (inactive); in the experiment with SN12C, > 100 µM (inactive); with LOX IMVI, 87.7 µM (inactive); in the experiment with RPMI-8226, 35.3 µM (inactive); in the experiment with UO-31, > 100 µM (inactive). Further, the GI50 with SF-295 was 38.5 µM (inactive); in the experiment with SK-MEL-5, 69.8 µM (inactive).

With `CCCCCCCCCCCCSC(=S)c1c(C)[nH]n(-c2ccccc2)c1=O`, the GI50 with SF-268 was 12.6 µM (inactive); in the experiment with A549, 11.8 µM (inactive); in the experiment with SW-620 it was 16.4 µM (inactive); in the experiment on IGROV-1, 14.6 µM (inactive); in the experiment on U-251, 2.85 µM (inactive); in the experiment on NCI-H226, 14.9 µM (inactive). For the same compound, the GI50 is 1.93 µM with HCT-15; 25.8 µM (inactive) with HOP-92; 8.28 µM (inactive) in the experiment with SN12C; 15.9 µM (inactive) with LOX IMVI; 11.2 µM (inactive) with RPMI-8226; 13.6 µM (inactive) in the experiment on UO-31. The figures for the GI50 in the experiment on SF-295 and with SK-MEL-5 were 12.5 µM (inactive) and 5.58 µM (inactive), respectively.
